Patent US9808470B2, “Estrogenic components for use in the treatment of neurological disorders” (UNIVERSITE DE LIEGE, priority 2012, dated 2017)

Key:
Type in all cases: in vivo
[1] = Ex.4 therapeutic HIE rat model: body weight; conditions: PND14
Method: To study the therapeutic effect of estetrol, newborn rat pups were assigned to one of the following 6 groups at postnatal day 7: sham group (n=29), vehicle group (n=20), 1 mg/kg E4 group (n=16), 5 mg/kg E4 group (n=19), 10 mg/kg day E4 (n=17) and 50 mg/kg day E4 group (n=15). At postnatal day 7 animals were anesthetized with isoflurane (induction, 3.0%; maintenance, 1.5%), and the rat pups from vehicle and E4 groups passed through surgery encompassing left common carotid artery double ligation and cut. After surgery, the pups were returned to their dams and allowed to recover for 1 hour. The pups were then placed in a humidified hypoxic in vivo cabinet (CoyLab). Hypoxia was produced by the inhalation of 11%-8% of oxygen balanced by nitrogen at decreased concentration of oxygen for 20 minutes, followed by inhalation of 8% oxygen and 92% nitrogen at constant concentration for 35 minutes. All the manipulations were performed at 37° C.
Upon retrieval from the hypoxia chamber the rat pups were injected intraperitoneally either by vehicle (vehicle group) or by E4 (1 mg/kg, 5 mg/kg, 10 mg/kg or 50 mg/kg) in accordance to the group assignment. The animals from the sham group went through similar procedures but proceeded neither left common carotid artery ligation and cut followed by hypoxia nor vehicle or estetrol administration. Rat pups recovered with their dams until being sacrificed at postnatal day 14.
To evaluate the post-operative well-being of rat pups due to the performed manipulations and estetrol treatment, the post-operative body weight was measured at postnatal days 7 and 14.

[2] = tested on: myelin-related mRNA (CNP, MAG, MBP); experiment: Ex.6 IL-1β induced diffuse white matter injury mouse model: myelin gene expression at P10 (qRT-PCR)
Method: Experimental protocols were approved by the institutional guidelines of the Institut National de la Santé et de la Recherche Scientifique (Inserm, France), and met the guidelines for the United States Public Health Service's Policy on Humane Care and Use of Laboratory Animals (NIH, Bethesda, Md., USA). Experiments were performed using OF1 strain mice purchased from Charles River (L'Arbresle, France) and born in our animal facility. Animals were housed under a 12 h light-dark cycle, had access to food and water ad libitum. Sex was determined at birth and confirmed at sacrifice. To avoid any potential variability linked to sex to differences. only male pups were used. Mice received twice a day from P1 to P4 and once on P5 a 5 μl intraperitoneal injection containing either PBS alone (sham group) or 10 μg/kg/dose recombinant mouse IL-1β in PBS. Vehicle group received only IL-1β injections while 10 μg E4 (5 mg/kg) or 20 μg E4 (10 mg/kg) was added to IL-1β once a day from P1 to P5 for E4 treated groups. Pups were sacrificed 3 hours after the first intraperitoneal injection at P1, 3 hours after last treatment at P5 or at P10 by intracardiac perfusion with NaCl 0.9% after anaesthesia by inhaled isoflurane.
At P10, anterior cortex and underneath white matter were collected and immediately frozen in nitrogen liquid, before storage at −80° C. for study of myelin-related mRNA expression.
Preparation of samples for quantitative reverse-transcriptase polymerase-chain reaction (qRT-PCR), primer design, and PCR protocol, were similar to that previously described (Favrais et al., 2011; Chhor et al., 2013). Briefly, RNA extraction was performed by with RNeasy mini kit according to the manufacturer's instructions (Qiagen, Courtaboeuf, France). RNA quality and concentration were assessed by spectrophotometry with the Nanodrop™ apparatus (Thermoscientific, Wilmington, Del., USA). Total RNA (0.5-1 μg) was subjected to reverse transcription using the iScript™ cDNA synthesis kit (Bio-Rad, Marnes-la-Coquette, France). qPCR was using SYBR Green Supermix (Bio-Rad). The relative expression of genes of interest (GOI) were expressed relative to expression of the reference gene, ribosomal protein L13a (Rpl13a) for CD11b+ cells and Glyceraldehyde 3-phosphate dehydrogenase (GAPDH) for O4+ cells and anterior brains based on reference gene suitability testing. Analyses were performed with the Biorad CFX manager 2.1 software. The relative quantities are expressed as the specific ratio between the gene of interest and Rpl13 or GAPDH. The data are presented as relative mRNA units with respect to control values (expressed as a fold-difference with respect to the mean of sham values).

O4-positive cells = experiment: Ex.6 IL-1β induced diffuse white matter injury mouse model: pre-oligodendrocyte maturation gene expression (qRT-PCR); conditions: P5
Method: Experimental protocols were approved by the institutional guidelines of the Institut National de la Santé et de la Recherche Scientifique (Inserm, France), and met the guidelines for the United States Public Health Service's Policy on Humane Care and Use of Laboratory Animals (NIH, Bethesda, Md., USA). Experiments were performed using OF1 strain mice purchased from Charles River (L'Arbresle, France) and born in our animal facility. Animals were housed under a 12 h light-dark cycle, had access to food and water ad libitum. Sex was determined at birth and confirmed at sacrifice. To avoid any potential variability linked to sex to differences. only male pups were used. […]
Preparation of samples for quantitative reverse-transcriptase polymerase-chain reaction (qRT-PCR), primer design, and PCR protocol, were similar to that previously described (Favrais et al., 2011; Chhor et al., 2013). […] RNA quality and concentration were assessed by spectrophotometry with the Nanodrop™ apparatus (Thermoscientific, Wilmington, Del., USA). […] The relative quantities are expressed as the specific ratio between the gene of interest and Rpl13 or GAPDH. The data are presented as relative mRNA units with respect to control values (expressed as a fold-difference with respect to the mean of sham values).

SMILES: C[C@]12CC[C@@H]3c4ccc(O)cc4CC[C@H]3[C@@H]1[C@@H](O)[C@@H](O)[C@@H]2O [E4, 1,3,5(10)-estratrien-3,15α,16α,17β-tetrol]
- body weight ([1]; 1 mg/kg E4 single ip dose after HI, vs vehicle): significantly higher body weight than the vehicle group
- body weight ([1]; 5 mg/kg E4 single ip dose after HI, vs sham): Sham operated animals showed significantly higher body weight
- body weight ([1]; 5 mg/kg E4 single ip dose after HI, vs vehicle): significantly higher body weight than the vehicle group
- body weight ([1]; 10 mg/kg E4 single ip dose after HI, vs vehicle): significantly higher body weight than the vehicle group
- body weight ([1]; 50 mg/kg E4 single ip dose after HI, vs vehicle): significantly higher body weight than the vehicle group
- CNP mRNA ([2]; E4 5 mg/kg, vs IL-1β): significant increase
- MAG mRNA ([2]; E4 5 mg/kg, vs IL-1β): significant increase
- MBP expression ([2]; E4 5 mg/kg, vs control group): not statistically different
- MBP expression, increase ([2]; E4 5 mg/kg, vs vehicle group (p=0.11)): not significant
- expression of myelin genes (MAG, MBP, CNP) ([2]; IL-1β+E4 10 mg/kg, vs IL-1β): No difference
- IL-1β-induced up-regulation in ID2 expression (O4-positive cells; 5 mg/kg and 10 mg/kg E4 co-treatment): prevented
- expression of Hey2 (O4-positive cells; IL-1β+E4 5 mg/kg, vs IL-1β alone): trend to up-regulation
